# Tests used:
# [1] = molecular target: T1, cloned human M2 receptor (human Muscarinic receptor subtype 2) (Homo sapiens, UniProt P08172); experiment: hM2 receptor GTPγS binding; type: biochemical; settings: CHO cell membranes expressing hM2; [35S]GTPγS binding; read-out: hM2 EC50
# T1 construct: purchased Perkin-Elmer RBHM2M; host or cells: Chinese hamster ovary cells (CHO) membranes
# T1 sequence (P08172 1-466): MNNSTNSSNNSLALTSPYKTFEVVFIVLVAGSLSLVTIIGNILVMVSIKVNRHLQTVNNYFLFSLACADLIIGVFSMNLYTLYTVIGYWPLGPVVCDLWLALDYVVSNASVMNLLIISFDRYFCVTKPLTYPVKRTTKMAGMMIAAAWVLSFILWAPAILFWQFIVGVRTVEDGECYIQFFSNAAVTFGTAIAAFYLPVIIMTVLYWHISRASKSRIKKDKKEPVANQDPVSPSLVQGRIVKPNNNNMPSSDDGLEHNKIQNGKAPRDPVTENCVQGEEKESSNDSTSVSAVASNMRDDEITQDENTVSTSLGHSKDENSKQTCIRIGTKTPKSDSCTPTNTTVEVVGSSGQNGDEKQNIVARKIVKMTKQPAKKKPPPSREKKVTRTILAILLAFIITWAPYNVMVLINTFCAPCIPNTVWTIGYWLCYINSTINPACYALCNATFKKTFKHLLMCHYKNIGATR
# Method: hM2 Receptor GTPγS Binding
# Membranes produced from Chinese hamster ovary cells (CHO) expressing the cloned human M2 receptor (human Muscarinic receptor subtype 2, gene bank access NM_000739), are obtained from Perkin-Elmer (RBHM2M). The membranes are thawed at 37° C., passed 3 times through a 23-gauge blunt-end needle, diluted in the GTPγS binding buffer (50 mM Hepes, 20 mM NaOH, 100 mM NaCl, 1 mM EDTA, 5 mM MgCl2, pH 7.4, 100 μM DTT). The EC50, IC50 and Emax of the compounds of the invention are evaluated from 10-point dose-response curves (three fold concentration range) done in 60 μl in 384-well non-specific binding surface plate (Corning). Ten microliters from the dose-response curves plate (5× concentration) are transferred to another 384 well plate containing 25 μl of the following: 5 μg of hM2 membranes, 500 μg of Flashblue beads (Perkin-Elmer) and GDP 25 μM. An additional 15 μl containing 3.3× (60,000 dpm) of GTPγ^35S (0.4 nM final) are added to the wells resulting in a total well volume of 50 μl. Basal and maximal stimulated [^35S]GTPγS binding are determined in absence and presence of 30 μM final of acetylcholine agonist. The membranes/beads mix are pre-incubated for 15 minutes at room temperature with 25 μM GDP prior to distribution in plates (12.5 μM final). The reversal of acetylcholine-induced stimulation (2 μM final) of [^35S]GTPγS binding is used to assay the antagonist properties (IC50) of the compounds. The plates are incubated for 60 minutes at room temperature then centrifuged at 400 rpm for 5 minutes. The radioactivity (cpm) is counted in a Trilux (Perkin-Elmer).
# (§1) Values of EC50, IC50 and Emax are obtained using sigmoidal fits of a non-linear curve-fitting program (XLfit version 4.2.2 Excel add-in version 4.2.2 build 18 math 1Q version 2.1.2 build 18) of percent stimulated [^35S]GTPγS binding vs. log(molar ligand). All pEC50 and plC50 values are reported as arithmetic means ±standard error of mean of ‘n’ independent experiments.
# [2] = molecular target: T2, cloned human M4 receptor (human Muscarinic receptor subtype 4) (Homo sapiens, UniProt P08173); experiment: hM4 receptor GTPγS binding; type: biochemical; settings: CHO cell membranes expressing hM4; [35S]GTPγS binding; read-out: hM4 EC50
# T2 construct: purchased Perkin-Elmer RBHM4M; host or cells: Chinese hamster ovary cells (CHO) membranes
# T2 sequence (P08173 1-479): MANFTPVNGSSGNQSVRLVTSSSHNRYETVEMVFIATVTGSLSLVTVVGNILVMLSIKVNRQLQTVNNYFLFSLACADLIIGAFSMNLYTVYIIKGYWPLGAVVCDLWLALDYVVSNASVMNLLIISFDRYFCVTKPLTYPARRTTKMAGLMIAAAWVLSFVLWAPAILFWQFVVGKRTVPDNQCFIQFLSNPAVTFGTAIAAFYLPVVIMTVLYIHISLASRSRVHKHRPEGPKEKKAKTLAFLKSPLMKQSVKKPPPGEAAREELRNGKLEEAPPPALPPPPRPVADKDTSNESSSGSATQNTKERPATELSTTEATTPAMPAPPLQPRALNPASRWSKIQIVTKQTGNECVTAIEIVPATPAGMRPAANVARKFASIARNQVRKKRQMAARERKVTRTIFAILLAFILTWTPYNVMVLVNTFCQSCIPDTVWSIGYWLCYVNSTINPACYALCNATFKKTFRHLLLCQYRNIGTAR
# Method: hM4 Receptor GTPγS Binding
# Membranes produced from Chinese hamster ovary cells (CHO) expressing the cloned human M4 receptor (human Muscarinic receptor subtype 4, gene bank access NM_000741), are obtained from Perkin-Elmer (RBHM4M). The membranes are thawed at 37° C., passed 3 times through a 23-gauge blunt-end needle, diluted in the GTPγS binding buffer (50 mM Hepes, 20 mM NaOH, 100 mM NaCl, 1 mM EDTA, 5 mM MgCl2, pH 7.4, 100 μM DTT). The EC50, IC50 and Emax of the compounds of the invention are evaluated from 10-point dose-response curves (three fold concentration range) done in 60 μl in 384-well non-specific binding surface plate (Corning). Ten microliters from the dose-response curves plate (5× concentration) are transferred to another 384 well plate containing 25 μl of the following: 10 μg of hM4 membranes, 500 μg of Flashblue beads (Perkin-Elmer) and GDP 40 μM. An additional 15 μl containing 3.3× (60,000 dpm) of GTPγ^35S (0.4 nM final) are added to the wells resulting in a total well volume of 50 μl. Basal and maximal stimulated [^35S]GTPγS binding are determined in absence and presence of 30 μM final of acetylcholine agonist. The membranes/beads mix are pre-incubated for 15 minutes at room temperature with 40 μM GDP prior to distribution in plates (20 μM final). The reversal of acetylcholine-induced stimulation (10 μM final) of [^35S]GTPγS binding is used to assay the antagonist properties (IC50) of the compounds. The plates are incubated for 60 minutes at room temperature then centrifuged at 400 rpm for 5 minutes. The radioactivity (cpm) is counted in a Trilux (Perkin-Elmer).
# as §1
EC50 [1] [nM],EC50 [2] [nM],Structure (SMILES)
997,1190,"CC1(N2CCC(n3c(=O)[nH]c4ccccc43)CC2)CCN(C(=O)OCCF)C1 (single isomer, unassigned) [Example 31, 2-fluoroethyl 3-methyl-3-(4-(2-oxo-2,3-dihydro-1H-benzo[d]imidazol-1-yl)piperidin-1-yl)pyrrolidine-1-carboxylate]"
5840,33700,"CC1(N2CCC(n3c(=O)[nH]c4ccccc43)CC2)CCN(C(=O)OCCF)C1 (single isomer, unassigned) [Example 32, 2-fluoroethyl 3-methyl-3-(4-(2-oxo-2,3-dihydro-1H-benzo[d]imidazol-1-yl)piperidin-1-yl)pyrrolidine-1-carboxylate]"
104,316,"CC#CCOC(=O)N1CCC(C)(N2CCC(n3c(=O)[nH]c4ccccc43)CC2)C1 (single isomer, unassigned) [Example 33, but-2-ynyl 3-methyl-3-(4-(2-oxo-2,3-dihydro-1H-benzo[d]imidazol-1-yl)piperidin-1-yl)pyrrolidine-1-carboxylate]"
897,1670,"CC#CCOC(=O)N1CCC(C)(N2CCC(n3c(=O)[nH]c4ccccc43)CC2)C1 (single isomer, unassigned) [Example 34, but-2-ynyl 3-methyl-3-(4-(2-oxo-2,3-dihydro-1H-benzo[d]imidazol-1-yl)piperidin-1-yl)pyrrolidine-1-carboxylate]"
1560,6830,"C#CCOC(=O)N1CCC(C)(N2CCC(n3c(=O)[nH]c4cc(F)ccc43)CC2)C1 (single isomer, unassigned) [Example 36, prop-2-ynyl 3-(4-(5-fluoro-2-oxo-2,3-dihydro-1H-benzo[d]imidazol-1-yl)piperidin-1-yl)-3-methylpyrrolidine-1-carboxylate]"
> 12800,> 90000,"Cc1ccc2[nH]c(=O)n(C3CCN(C4(C)CCN(C(=O)OC(C)C)C4)CC3)c2c1 (single isomer, unassigned) [Example 39, isopropyl 3-methyl-3-(4-(6-methyl-2-oxo-2,3-dihydro-1H-benzo[d]imidazol-1-yl)piperidin-1-yl)pyrrolidine-1-carboxylate]"
2810,> 22300,"Cc1ccc2[nH]c(=O)n(C3CCN(C4(C)CCN(C(=O)OC(C)C)C4)CC3)c2c1 (single isomer, unassigned) [Example 40, isopropyl 3-methyl-3-(4-(6-methyl-2-oxo-2,3-dihydro-1H-benzo[d]imidazol-1-yl)piperidin-1-yl)pyrrolidine-1-carboxylate]"
2210,8800,"C#CCOC(=O)N1CCC(C)(N2CCC(n3c(=O)[nH]c4ccc(C)cc43)CC2)C1 (single isomer, unassigned) [Example 41, prop-2-ynyl 3-methyl-3-(4-(6-methyl-2-oxo-2,3-dihydro-1H-benzo[d]imidazol-1-yl)piperidin-1-yl)pyrrolidine-1-carboxylate]"
109,460,"C#CCOC(=O)N1CCC(C)(N2CCC(n3c(=O)[nH]c4ccc(C)cc43)CC2)C1 (single isomer, unassigned) [Example 43, prop-2-ynyl 3-methyl-3-(4-(6-methyl-2-oxo-2,3-dihydro-1H-benzo[d]imidazol-1-yl)piperidin-1-yl)pyrrolidine-1-carboxylate]"
26,107,"C#CCOC(=O)N1CCC(C)(N2CCC(n3c(=O)[nH]c4cc(C)ccc43)CC2)C1 (single isomer, unassigned) [Example 44, prop-2-ynyl 3-methyl-3-(4-(5-methyl-2-oxo-2,3-dihydro-1H-benzo[d]imidazol-1-yl)piperidin-1-yl)pyrrolidine-1-carboxylate]"
1640,11200,"COC(=O)N1CCC(C)(N2CCC(n3c(=O)[nH]c4ccc(C)cc43)CC2)C1 (single isomer, unassigned) [Example 45, methyl 3-methyl-3-(4-(6-methyl-2-oxo-2,3-dihydro-1H-benzo[d]imidazol-1-yl)piperidin-1-yl)pyrrolidine-1-carboxylate]"
127,907,"COC(=O)N1CCC(C)(N2CCC(n3c(=O)[nH]c4ccc(C)cc43)CC2)C1 (single isomer, unassigned) [Example 47, methyl 3-methyl-3-(4-(6-methyl-2-oxo-2,3-dihydro-1H-benzo[d]imidazol-1-yl)piperidin-1-yl)pyrrolidine-1-carboxylate]"
571,3480,"COC(=O)N1CCC(C)(N2CCC(n3c(=O)[nH]c4cc(C)ccc43)CC2)C1 (single isomer, unassigned) [Example 48, methyl 3-methyl-3-(4-(5-methyl-2-oxo-2,3-dihydro-1H-benzo[d]imidazol-1-yl)piperidin-1-yl)pyrrolidine-1-carboxylate]"
4550,9480,"CCOC(=O)N1CCC(C)(N2CCC(n3c(=O)[nH]c4ccc(F)cc43)CC2)C1 (single isomer, unassigned) [Example 49, ethyl 3-(4-(6-fluoro-2-oxo-2,3-dihydro-1H-benzo[d]imidazol-1-yl)piperidin-1-yl)-3-methylpyrrolidine-1-carboxylate]"
498,2020,"CCOC(=O)N1CCC(C)(N2CCC(n3c(=O)[nH]c4ccc(F)cc43)CC2)C1 (single isomer, unassigned) [Example 50, ethyl 3-(4-(6-fluoro-2-oxo-2,3-dihydro-1H-benzo[d]imidazol-1-yl)piperidin-1-yl)-3-methylpyrrolidine-1-carboxylate]"
1240,5090,"COC(=O)N1CCC(C)(N2CCC(n3c(=O)[nH]c4ccc(F)cc43)CC2)C1 (single isomer, unassigned) [Example 52, methyl 3-(4-(6-fluoro-2-oxo-2,3-dihydro-1H-benzo[d]imidazol-1-yl)piperidin-1-yl)-3-methylpyrrolidine-1-carboxylate]"

# Source: patent publication US20090221642A1, “MUSCARINIC RECEPTOR AGONISTS, COMPOSITIONS, METHODS OF TREATMENT THEREOF, AND PROCESSES FOR PREPARATION THEREOF-176” (AstraZeneca AB, priority 2008, published 2009)
